Experimental findings from patent US8367695B2, “Condensed tetrahydroquinoline derivative and use thereof for medical purposes” (Mitsubishi Tanabe Pharma Corporation, priority 2007, dated 2013) are described below.

For one experiment, the target named is T1, Glucocorticoid Receptor (GR), CHO-GRE-Luc #35 cells (Cricetulus griseus, UniProt A0A9J7F8I2).
T1 sequence (A0A9J7F8I2 1-774): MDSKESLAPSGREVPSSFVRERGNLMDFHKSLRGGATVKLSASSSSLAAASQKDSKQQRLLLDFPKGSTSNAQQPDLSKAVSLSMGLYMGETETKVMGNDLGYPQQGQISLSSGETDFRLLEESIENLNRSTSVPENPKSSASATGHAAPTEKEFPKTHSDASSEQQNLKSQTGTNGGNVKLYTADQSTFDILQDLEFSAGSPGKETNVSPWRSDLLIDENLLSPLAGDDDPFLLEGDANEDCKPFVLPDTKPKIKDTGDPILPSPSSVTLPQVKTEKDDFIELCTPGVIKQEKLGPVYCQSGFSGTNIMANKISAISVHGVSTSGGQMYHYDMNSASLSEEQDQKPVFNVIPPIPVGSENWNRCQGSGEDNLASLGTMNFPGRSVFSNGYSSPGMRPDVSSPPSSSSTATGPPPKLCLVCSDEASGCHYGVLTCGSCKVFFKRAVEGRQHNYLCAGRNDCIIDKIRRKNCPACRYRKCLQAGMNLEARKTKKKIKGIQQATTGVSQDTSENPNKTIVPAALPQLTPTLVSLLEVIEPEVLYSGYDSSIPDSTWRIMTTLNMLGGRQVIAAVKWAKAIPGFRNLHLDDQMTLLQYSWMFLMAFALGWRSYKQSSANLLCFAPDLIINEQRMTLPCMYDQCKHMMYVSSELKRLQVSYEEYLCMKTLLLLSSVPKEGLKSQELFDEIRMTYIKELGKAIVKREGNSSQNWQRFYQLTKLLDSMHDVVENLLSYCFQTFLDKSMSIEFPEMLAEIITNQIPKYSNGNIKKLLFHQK
The experiment is described as follows: Glucocorticoid receptor function test using transgenic-recombinant cell (GRE-luciferase).
Conditions: not given
The format is cell-based. On the procedure: Glucocorticoid Receptor Function Test Using Transgenic-Recombinant Cell
Transgenic-recombinant cell was prepared by our company (Yokohama, JP). In Hokkaido System Science Co., Ltd., a cis-element wherein two glucocorticoid responsive elements (GRE) present in the […] promoter region of mouse were connected in tandem was produced on order from synthetic DNA. The gene was incorporated into a plasmid vector having a gene encoding luciferase enzyme. The plasmid was incorporated into CHO-K1 cell to give a transfectant. The expression cell (CHO-GRE-Luc #35) produces luciferase instead of the object protein under regulation of a transcription region involved in the expression of the object protein. That is, using the cell, a substance that controls production of the object protein can be screened for by replacing the substance with the luciferase activity. Fetal Bovine Serum (FBS), L-glutamine, penicillin-streptomycin solution, PBS(−), trypsin-EDTA solution, Opti-MEM medium and G418 were obtained from GIBCO (Auckland, N.Z.). A 10 cm dish and DMEM:HAM′S F12 medium were obtained from IWAKI (Chiba, JP). A 96 well white plate was obtained from Corning (Corning, N.Y.). Bright-Glo was obtained from Promega (Madison, US). Dexamethasone was obtained from Sigma Chemicals (St. Louis, Mo.).
CHO-GRE-Luc #35 cells were cultured for several days in a 10 cm dish in a medium (10% FBS/DMEM:HAM'S F12/2.5 mM L-glutamine/50 U/mL penicillin/25 μg/mL streptomycin/500 μg/mL G418). Sub-confluent cells were washed with a suitable amount of PBS(−), 1 ml of Trypsin-EDTA was added and the cells were stood still in a CO2 incubator at 37° C. for 3 min. A 10-fold amount of Opti-MEM medium was added to give a suspension, which was placed in a centrifugal tube and centrifuged (25° C., 1,000 rpm, 5 min). The supernatant was removed, and the cells were suspended in 5 ml of Opti-MEM medium and counted.
Storage solutions (5-20 mM) of the compound were prepared with DMSO. The storage solutions were diluted with DMSO to 1 mM, and further diluted 100-fold with distilled water or Opti-MEM medium to give solutions. The preparations were diluted with 1% DMSO solution to each concentration. As GR agonist, 10 nM dexamethasone was used. 0.2% DMSO was present at the time of the function assay.
The prepared compound solutions (evaluation compound solution or 1% DMSO solution 10 μL+dexamethasone or 1% DMSO solution 10 μL) were added to the plate. After the addition, the place was stood still in a CO2 incubator at 37° C. for about 6 hr. After the reaction, Bright-Glo was added at 20 μL/well, and the mixture was gently shaken and measured by a microplate luminometer (Turner Designs Instrument).
The IC50 value (nM) of the evaluation compound against GR stimulation with dexamethasone was calculated using Prism 3.0 as an analysis software and assuming one-site competition.
In the case of `C=CCC1(C)C(=O)C(C)(C)Nc2c1cc(-c1cccc3cc[nH]c13)c1c2OCO1` (stereo not drawn) [Example 78, 6-allyl-4-(1H-indol-7-yl)-6,8,8-trimethyl-6,7,8,9-tetrahydro-[1,3]dioxolo[4,5-h]quinolin-7-one], the IC50 stood at 94 nM.
Same read-out and setting: for `CC1(C)Nc2c(cc(-c3cccc4nncn34)c3c2CCC3)C(C)(C)C1=O` [Example 17, 2,2,4,4-tetramethyl-6-([1,2,4]triazolo[4,3-a]pyridin-5-yl)-2,3,4,7,8,9-hexahydro-1H-cyclopenta[h]quinolin-3-one] the value was 91 nM.

The same experiment, now with this note: against GR stimulation with 10 nM dexamethasone, luciferase, about 6 hr; read-out: GR (IC50: nM).
Turning to `Cc1noc(C)c1-c1cc2c(c3c1OCC3)NC(C)(C)C(=O)C2(C)C` [Example 84, 6-(3,5-dimethylisoxazol-4-yl)-2,2,4,4-tetramethyl-1,2,3,4,8,9-hexahydro-furo[2,3-h]quinolin-3-one], the IC50 came out at 49 nM.
As to `Cc1noc(C)c1-c1cc2c(c3c1OCO3)NC(C)(C)C(=O)C2(C)C` [Example 69, 4-(3,5-dimethylisoxazol-4-yl)-6,6,8,8-tetramethyl-6,7,8,9-tetrahydro-[1,3]dioxolo[4,5-h]quinolin-7-one], the 50% inhibitory concentration (IC50) stood at 77 nM.
The same measure, in the same setting: the same measure for `Cc1noc(C)c1-c1cc2c(c3c1C(=O)CC3)NC(C)(C)C(=O)C2(C)C` [Example 104, 6-(3,5-dimethylisoxazol-4-yl)-2,2,4,4-tetramethyl-2,3,4,7,8,9-hexahydro-1H-cyclopenta[h]quinoline-3,7-dione]: 128 nM.
As for `CC1(C)Nc2c(cc(-c3ccnc4ncccc34)c3c2CCO3)C(C)(C)C1=O` [Example 92, 2,2,4,4-tetramethyl-6-([1,8]naphthyridin-4-yl)-1,2,3,4,8,9-hexahydro-furo[2,3-h]quinolin-3-one], the IC50 worked out at 73 nM.
Same read-out and setting: the same measure for `CC1(C)Nc2c(cc(-c3cccc4ncccc34)c3occc23)C(C)(C)C1=O` [Example 101, 2,2,4,4-tetramethyl-6-(quinolin-5-yl)-1,2,3,4-tetrahydro-furo [2,3-h]quinolin-3-one]: 37 nM.
Same read-out and setting: the same measure for `CC1(C)Nc2c(cc(-c3ccnc4ncccc34)c3occc23)C(C)(C)C1=O` [Example 102, 2,2,4,4-tetramethyl-6-([1,8]naphthyridin-4-yl)-1,2,3,4-tetrahydro-furo[2,3-h]quinolin-3-one]: 35 nM; for `CC1(C)Nc2c(cc(-c3cccc4nccn34)c3c2OC(F)(F)O3)C(C)(C)C1=O` [Example 82, 2,2-difluoro-4-(imidazo[1,2-a]pyridin-5-yl)-6,6,8,8-tetramethyl-6,7,8,9-tetrahydro-[1,3]dioxolo[4,5-h]quinolin-7-one]: 111 nM; for `CCC1(C)C(=O)C(C)(C)Nc2c1cc(-c1cccc3nccn13)c1c2CCC1` (stereo not drawn) [Example 58, 4-ethyl-6-(imidazo[1,2-s]pyridin-5-yl)-2,2,4-trimethyl-2,3,4,7,8,9-hexahydro-1H-cyclopenta[h]quinolin-3-one]: 37 nM.
On the same count and under the same terms, for `CC1(C)Nc2c(cc(-c3ccnc4ncccc34)c3c2CCC3)C(C)(C)C1=O` [Example 21, 2,2,4,4-tetramethyl-6-([1,8]naphthyridin-4-yl)-2,3,4,7,8,9-hexahydro-1H-cyclopenta[h]quinolin-3-one] the value was 53 nM.
Consider `Cc1onc(CO)c1-c1cc2c(c3ccoc13)NC(C)(C)C(=O)C2(C)C` [Example 94, 6-(3-hydroxymethyl-5-methylisoxazol-4-yl)-2,2,4,4-tetramethyl-1,2,3,4-tetrahydro-furo[2,3-h]quinolin-3-one], for which the IC50 is 66 nM.
The same measure, in the same setting: the same measure for `Cc1nnn(C)c1-c1cc2c(c3c1CCC3)NC(C)(C)C(=O)C2(C)C` [Example 4, 6-(3,5-dimethyl-3H-[1,2,3]triazol-4-yl)-2,2,4,4-tetramethyl-2,3,4,7,8,9-hexahydro-1H-cyclopenta[h]quinolin-3-one]: 86 nM; for `CC1(C)Nc2c(cc(-c3cccc4nccn34)c3c2OCO3)C(C)(C)C1=O` [Example 71, 4-(imidazo[1,2-a]pyridin-5-yl)-6,6,8,8-tetramethyl-6,7,8,9-tetrahydro-[1,3]dioxolo[4,5-h]quinolin-7-one]: 59 nM; for `CC1(C)Nc2c(cc(-c3cccc4ncccc34)c3c2CCC3)C(C)(C)C1=O` [Example 20, 2,2,4,4-tetramethyl-6-(quinolin-5-yl)-2,3,4,7,8,9-hexahydro-1H-cyclopenta[h]quinolin-3-one]: 74 nM.
The same measure, in the same setting: for `CC1(C)Nc2c(cc(-c3cccc4nccn34)c3c2CCC3)C(C)(C)C1=O` [Example 14, 6-(imidazo[1,2-a]pyridin-5-yl)-2,2,4,4-tetramethyl-2,3,4,7,8,9-hexahydro-1H-cyclopenta[h]quinolin-3-one] the value was 21 nM; for `C=CCC1(C)C(=O)C(C)(C)Nc2c1cc(-c1ccc(O)cc1C)c1c2CCC1` (stereo not drawn) [Example 50, 4-allyl-6-(4-hydroxy-2-methylphenyl)-2,2,4-trimethyl-2,3,4,7,8,9-hexahydro-1H-cyclopenta[h]quinolin-3-one], 61 nM.
With `CC1(C)Nc2c(cc(-c3cncc4nccn34)c3occc23)C(C)(C)C1=O` [Example 100, 6-(imidazo[1,2-a]pyrazin-5-yl)-2,2,4,4-tetramethyl-1,2,3,4-tetrahydro-furo[2,3-h]quinolin-3-one], the IC50 was 47 nM.
`Cc1noc(C)c1-c1cc2c(c3c1CCC3)NC(C)(C)C(=O)C2(C)C` [Example 2, 6-(3,5-dimethylisoxazol-4-yl)-2,2,4,4-tetramethyl-2,3,4,7,8,9-hexahydro-1H-cyclopenta[h]quinolin-3-one]: the IC50 was determined as 30 nM.
`CC1(C)Nc2c(cc(-c3cccc4nccn34)c3occc23)C(C)(C)C1=O` [Example 98, 6-(imidazo[1,2-a]pyridin-5-yl)-2,2,4,4-tetramethyl-1,2,3,4-tetrahydro-furo[2,3-h]quinolin-3-one]: the IC50 was 31 nM.
`C=C1C(C)(C)Nc2c(cc(-c3c(C)ncn3C)c3c2CCC3)C1(C)C` [Example 29, 6-(3,5-dimethyl-3H-imidazol-4-yl)-2,2,4,4-tetramethyl-3-methylene-2,3,4,7,8,9-hexahydro-1H-cyclopenta[h]quinoline]: the half-maximal inhibitory concentration (IC50) worked out at 69 nM.
`CC#CCC1(C)C(=O)C(C)(C)Nc2c1cc(-c1cccc3nccn13)c1c2CCC1` (stereo not drawn) [Example 63, 4-(2-butynyl)-6-(imidazo[1,2-a]pyridin-5-yl)-2,2,4-trimethyl-2,3,4,7,8,9-hexahydro-1H-cyclopenta[h]quinolin-3-one]: the IC50 turned out to be 48 nM.
With `CC1(C)Nc2c(cc(-c3cccc4ncccc34)c3c2OCO3)C(C)(C)C1=O` [Example 72, 6,6,8,8-tetramethyl-4-(quinolin-5-yl)-6,7,8,9-tetrahydro-[1,3]dioxolo[4,5-h]quinolin-7-one], the IC50 came to 40 nM.
As to `C=CCC1(C)C(=O)C(C)(C)Nc2c1cc(-c1cccc3nccn13)c1c2CCC1` (stereo not drawn) [Example 57, 4-allyl-6-(imidazo[1,2-a]pyridin-5-yl)-2,2,4-trimethyl-2,3,4,7,8,9-hexahydro-1H-cyclopenta[h]quinolin-3-one], the IC50 was 69 nM.
